{"source": "patent US12692236B2", "about": "“Small molecule modulators of sigma-1 and sigma-2 receptors and uses thereof” (Northwestern University, priority 2018, dated 2026)", "key": {"sigma-2 receptor": {"target": "sigma-2 receptor (Homo sapiens, UniProt Q5BJF2)", "sequence (Q5BJF2 whole entry, species assumed)": "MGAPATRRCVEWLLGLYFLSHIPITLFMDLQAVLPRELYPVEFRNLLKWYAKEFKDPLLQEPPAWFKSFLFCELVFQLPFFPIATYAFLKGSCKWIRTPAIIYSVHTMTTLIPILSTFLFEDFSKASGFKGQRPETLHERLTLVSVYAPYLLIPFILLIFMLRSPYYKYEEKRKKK", "experiment": "sigma-2 receptor binding affinity (Ki)", "settings": "for Ki: read-out: Ki (nM) Sigma-2"}, "sigma-1 receptor": {"target": "sigma-1 receptor (Homo sapiens, UniProt Q99720)", "sequence (Q99720 whole entry, species assumed)": "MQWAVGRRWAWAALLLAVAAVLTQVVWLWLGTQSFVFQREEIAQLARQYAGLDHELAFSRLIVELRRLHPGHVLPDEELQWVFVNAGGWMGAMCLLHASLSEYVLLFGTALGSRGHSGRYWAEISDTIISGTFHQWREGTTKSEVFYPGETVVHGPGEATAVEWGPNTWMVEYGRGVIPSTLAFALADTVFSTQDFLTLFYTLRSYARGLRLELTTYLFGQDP", "experiment": "sigma-1 receptor binding affinity (Ki)", "settings": "for Ki: read-out: Ki (nM) Sigma-1"}}}
{"compound": "O=C(c1c2c(nn1-c1ccccc1)CCC(NCCc1ccc(C(F)(F)F)cc1)C2)N1CCCCC1", "note": "(stereo not drawn) [compound 201683, (2-Phenyl-5-((4-(trifluoromethyl)phenethyl)amino)-4,5,6,7-tetrahydro-2H-indazol-3-yl)(piperidin-1-yl)methanone]", "values": [{"measurement": "Ki", "setting": "sigma-2 receptor", "value": "> 10000", "unit": "nM"}, {"measurement": "Ki", "setting": "sigma-1 receptor", "value": 213, "unit": "nM"}]}
{"compound": "O=C(c1nn(-c2ccccc2)c2c1CC(NCc1ccccc1)CC2)N1CCCCC1", "note": "(stereo not drawn) [compound 201665, (5-(Benzylamino)-1-phenyl-4,5,6,7-tetrahydro-1H-indazol-3-yl)(piperidin-1-yl)methanone]", "values": [{"measurement": "Ki", "setting": "sigma-2 receptor", "value": 492, "unit": "nM"}, {"measurement": "Ki", "setting": "sigma-1 receptor", "value": 710, "unit": "nM"}]}
{"compound": "CCCn1nc(C(=O)N(C)C)c2c1CCC(NCc1ccc(Cl)cc1)C2", "note": "(stereo not drawn) [compound 200875, 5-((4-chlorobenzyl)amino)-N,N-dimethyl-1-propyl-4,5,6,7-tetrahydro-1H-indazole-3-carboxamide]", "values": [{"measurement": "activity against sigma-2 (in words)", "setting": "sigma-2 receptor", "value": "moderate inhibition"}, {"measurement": "Ki", "setting": "sigma-2 receptor", "value": 1020, "unit": "nM"}, {"measurement": "activity against sigma-1 (in words)", "setting": "sigma-1 receptor", "value": "complete loss of activity"}]}
{"compound": "C=Cc1ccc(-n2nc(C(=O)N3CCCCC3)c3c2CCC(NCCc2ccccc2)C3)cc1", "note": "(stereo not drawn) [compound 201244, (5-(Phenethylamino)-1-(4-vinylphenyl)-4,5,6,7-tetrahydro-1H-indazol-3-yl)(piperidin-1-yl)methanone]", "values": [{"measurement": "Ki", "setting": "sigma-2 receptor", "value": 305, "unit": "nM"}, {"measurement": "Ki", "setting": "sigma-1 receptor", "value": 458, "unit": "nM"}]}
{"compound": "CCCn1nc(C(=O)N2CCCCC2)c2c1CCC(N1CCN(c3ccc([N+](=O)[O-])cc3)CC1)C2", "note": "(stereo not drawn) [compound 200709, (5-(4-(4-Nitrophenyl)piperazin-1-yl)-1-propyl-4,5,6,7-tetrahydro-1H-indazol-3-yl)(piperidin-1-yl)methanone]", "values": [{"measurement": "Ki", "setting": "sigma-2 receptor", "value": 526, "unit": "nM"}, {"measurement": "Ki", "setting": "sigma-1 receptor", "value": 1590, "unit": "nM"}]}
{"compound": "O=C(c1nn(Cc2ccccc2)c2c1CC(NCc1ccc(F)cc1)CC2)N1CCCCC1", "note": "(stereo not drawn) [compound 201115, (1-benzyl-5-((4-fluorobenzyl)amino)-4,5,6,7-tetrahydro-1H-indazol-3-yl)(piperidin-1-yl)methanone]", "values": [{"measurement": "Ki", "setting": "sigma-2 receptor", "value": "> 10000", "unit": "nM"}, {"measurement": "selectivity sigma-1 versus sigma-2 (in words)", "setting": "sigma-1 receptor", "value": "excellent selectivity"}, {"measurement": "Ki", "setting": "sigma-1 receptor", "value": 70, "unit": "nM"}]}
{"compound": "CCCn1nc(C(=O)N2CCCCC2)c2c1CCC(N1CCC(N(C)C)CC1)C2", "note": "(stereo not drawn) [compound 196331, (5-(4-(dimethylamino)piperidin-1-yl)-1-propyl-4,5,6,7-tetrahydro-1H-indazol-3-yl)(piperidin-1-yl)methanone]", "values": [{"measurement": "Ki", "setting": "sigma-2 receptor", "value": "> 10000", "unit": "nM"}, {"measurement": "Ki", "setting": "sigma-1 receptor", "value": "> 10000", "unit": "nM"}]}
{"compound": "CCCn1nc(C(=O)N2CCCCC2)c2c1CCC(Nc1ccc(Oc3ccccc3)cc1)C2", "note": "(stereo not drawn) [compound 200702]", "values": [{"measurement": "Ki", "setting": "sigma-2 receptor", "value": 310, "unit": "nM"}, {"measurement": "Ki", "setting": "sigma-1 receptor", "value": "> 10000", "unit": "nM"}]}
{"compound": "O=C(c1c2c(nn1-c1ccc(F)cc1)CCC(NCCc1ccncc1)C2)N1CCCCC1", "note": "(stereo not drawn) [compound 201116, (2-(4-fluorophenyl)-5-((2-(pyridin-4-yl)ethyl)amino)-4,5,6,7-tetrahydro-2H-indazol-3-yl)(piperidin-1-yl)methanone]", "values": [{"measurement": "Ki", "setting": "sigma-2 receptor", "value": 251, "unit": "nM"}, {"measurement": "Ki", "setting": "sigma-1 receptor", "value": 103, "unit": "nM"}]}
{"compound": "CCCn1nc(C(=O)N(C)C)c2c1CCC(NC(=O)c1ccc(F)cc1)C2", "note": "(stereo not drawn) [compound 2000623, 5-(4-fluorobenzamido)-N,N-dimethyl-1-propyl-4,5,6,7-tetrahydro-1H-indazole-3-carboxamide]", "values": [{"measurement": "activity against sigma-2 (in words)", "setting": "sigma-2 receptor", "value": "did not restore the activity"}, {"measurement": "Ki", "setting": "sigma-2 receptor", "value": "> 10000", "unit": "nM"}, {"measurement": "activity against sigma-1 (in words)", "setting": "sigma-1 receptor", "value": "did not restore the activity"}, {"measurement": "Ki", "setting": "sigma-1 receptor", "value": "> 10000", "unit": "nM"}]}
{"compound": "O=C(c1nn(-c2ccccc2)c2c1CC(NCCc1ccncc1)CC2)N1CCCCC1", "note": "(stereo not drawn) [compound 201666, (1-Phenyl-5-((2-(pyridin-4-yl)ethyl)amino)-4,5,6,7-tetrahydro-1H-indazol-3-yl)(piperidin-1-yl)methanone]", "values": [{"measurement": "Ki", "setting": "sigma-2 receptor", "value": 517, "unit": "nM"}, {"measurement": "Ki", "setting": "sigma-1 receptor", "value": 1030, "unit": "nM"}]}
{"compound": "O=C(c1nn(Cc2ccccc2)c2c1CC(NCCc1ccncc1)CC2)N1CCCCC1", "note": "(stereo not drawn) [compound 201114, (1-benzyl-5-((2-(pyridin-4-yl)ethyl)amino)-4,5,6,7-tetrahydro-1H-indazol-3-yl)(piperidin-1-yl)methanone]", "values": [{"measurement": "Ki", "setting": "sigma-2 receptor", "value": "> 10000", "unit": "nM"}, {"measurement": "Ki", "setting": "sigma-1 receptor", "value": 249, "unit": "nM"}]}
{"compound": "CCCn1nc(C(=O)N2CCCCC2)c2c1CCC(NCCc1cccc(O)c1)C2", "note": "(stereo not drawn) [compound 200646, (5-((3-Hydroxyphenethyl)amino)-1-propyl-4,5,6,7-tetrahydro-1H-indazol-3-yl)(piperidin-1-yl)methanone]", "values": [{"measurement": "Ki", "setting": "sigma-2 receptor", "value": 612, "unit": "nM"}, {"measurement": "Ki", "setting": "sigma-1 receptor", "value": 872, "unit": "nM"}]}
